In one test the target is CDK4/cyclin D3 (Homo sapiens, UniProt P11802). As to conditions: 1 μM; Run 1, Run 2.
A further test has as its target ERN1/IRE1 (Homo sapiens, UniProt O75460). The test is described as follows: biochemical. The conditions noted are these: read-out: % enzyme activity, 1 μM; Run 1, Run 2.
The target in the next test is T1, KSR2 (Homo sapiens, UniProt Q6VAB6).
T1 sequence (Q6VAB6 1-950): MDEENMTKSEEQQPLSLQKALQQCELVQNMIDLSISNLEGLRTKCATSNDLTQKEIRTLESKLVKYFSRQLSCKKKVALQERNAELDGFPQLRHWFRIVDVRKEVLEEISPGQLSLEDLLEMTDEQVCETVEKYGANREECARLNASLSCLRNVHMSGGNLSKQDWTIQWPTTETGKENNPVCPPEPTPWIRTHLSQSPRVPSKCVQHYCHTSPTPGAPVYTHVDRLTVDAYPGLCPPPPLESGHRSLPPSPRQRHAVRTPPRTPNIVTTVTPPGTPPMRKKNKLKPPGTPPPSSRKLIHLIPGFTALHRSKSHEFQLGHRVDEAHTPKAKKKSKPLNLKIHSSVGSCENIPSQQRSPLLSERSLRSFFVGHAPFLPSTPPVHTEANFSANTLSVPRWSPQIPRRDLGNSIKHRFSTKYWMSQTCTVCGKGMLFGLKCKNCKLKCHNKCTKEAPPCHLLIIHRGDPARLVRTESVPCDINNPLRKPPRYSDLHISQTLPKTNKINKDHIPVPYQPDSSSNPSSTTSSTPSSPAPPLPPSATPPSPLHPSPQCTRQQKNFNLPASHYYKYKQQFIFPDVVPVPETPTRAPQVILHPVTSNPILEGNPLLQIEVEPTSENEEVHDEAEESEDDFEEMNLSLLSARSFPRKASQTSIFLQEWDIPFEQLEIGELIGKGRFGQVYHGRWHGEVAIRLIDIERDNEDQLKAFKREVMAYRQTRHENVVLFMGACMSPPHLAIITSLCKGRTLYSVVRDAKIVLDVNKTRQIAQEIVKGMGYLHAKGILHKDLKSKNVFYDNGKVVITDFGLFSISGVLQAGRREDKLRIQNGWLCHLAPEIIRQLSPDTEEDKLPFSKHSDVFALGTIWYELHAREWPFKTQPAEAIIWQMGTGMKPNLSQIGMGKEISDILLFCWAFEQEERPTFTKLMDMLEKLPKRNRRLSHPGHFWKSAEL
The test is described as follows: biochemical. As to conditions: read-out: % enzyme activity, 1 μM; Run 1, Run 2.

For another test, the target named is MLK1/MAP3K9 (Homo sapiens, UniProt P80192). The test is described as follows: biochemical. The conditions noted are these: read-out: % enzyme activity, 1 μM; Run 1, Run 2.
The target of a further test is MLK4 (Homo sapiens, UniProt Q5TCX8). The test can be described thus: biochemical. As to conditions: read-out: % enzyme activity, 1 μM; Run 1, Run 2.
Another test addresses SYK (Homo sapiens, UniProt P43405). The test can be described thus: biochemical. As to conditions: read-out: % enzyme activity, 1 μM; Run 1, Run 2.
The target of the next test is T2, TBK1 (Homo sapiens, UniProt Q9UHD2).
T2 sequence (Q9UHD2 1-729): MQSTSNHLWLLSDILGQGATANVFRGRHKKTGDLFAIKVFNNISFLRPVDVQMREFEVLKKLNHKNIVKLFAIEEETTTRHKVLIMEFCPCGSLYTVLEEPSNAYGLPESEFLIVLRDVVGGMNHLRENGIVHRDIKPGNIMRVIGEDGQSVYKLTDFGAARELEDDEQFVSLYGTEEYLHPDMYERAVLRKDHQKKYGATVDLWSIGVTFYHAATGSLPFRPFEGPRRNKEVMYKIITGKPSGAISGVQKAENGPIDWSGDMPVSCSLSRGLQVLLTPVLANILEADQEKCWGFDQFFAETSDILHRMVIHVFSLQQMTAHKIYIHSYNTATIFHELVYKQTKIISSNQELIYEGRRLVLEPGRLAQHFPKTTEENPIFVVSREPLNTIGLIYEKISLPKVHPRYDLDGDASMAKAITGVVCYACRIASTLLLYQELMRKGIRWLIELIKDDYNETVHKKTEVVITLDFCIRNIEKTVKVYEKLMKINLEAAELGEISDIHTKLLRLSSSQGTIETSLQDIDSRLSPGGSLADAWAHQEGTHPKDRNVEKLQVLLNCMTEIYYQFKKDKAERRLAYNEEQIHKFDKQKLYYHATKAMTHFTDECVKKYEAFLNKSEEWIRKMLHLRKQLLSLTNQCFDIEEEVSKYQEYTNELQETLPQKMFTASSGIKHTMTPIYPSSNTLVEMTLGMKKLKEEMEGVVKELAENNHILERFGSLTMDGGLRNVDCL
The test is described as follows: biochemical. The conditions noted are these: read-out: % enzyme activity, 1 μM; Run 1, Run 2.

The next test deals with WEE1 (Homo sapiens, UniProt P30291). The test can be described thus: biochemical. The conditions noted are these: read-out: % enzyme activity, 1 μM; Run 1, Run 2.
The target in the next test is WNK1 (Homo sapiens, UniProt Q9H4A3). The test can be described thus: biochemical. The conditions noted are these: read-out: % enzyme activity, 1 μM; Run 1, Run 2.

The record followed here is paper PMC8213057, “Targeting ALK2: An Open Science Approach to Developing Therapeutics for the Treatment of Diffuse Intrinsic Pontine Glioma” (Journal of Medicinal Chemistry, 2020).

Sequence of WNK1 (Q9H4A3 whole entry, species assumed): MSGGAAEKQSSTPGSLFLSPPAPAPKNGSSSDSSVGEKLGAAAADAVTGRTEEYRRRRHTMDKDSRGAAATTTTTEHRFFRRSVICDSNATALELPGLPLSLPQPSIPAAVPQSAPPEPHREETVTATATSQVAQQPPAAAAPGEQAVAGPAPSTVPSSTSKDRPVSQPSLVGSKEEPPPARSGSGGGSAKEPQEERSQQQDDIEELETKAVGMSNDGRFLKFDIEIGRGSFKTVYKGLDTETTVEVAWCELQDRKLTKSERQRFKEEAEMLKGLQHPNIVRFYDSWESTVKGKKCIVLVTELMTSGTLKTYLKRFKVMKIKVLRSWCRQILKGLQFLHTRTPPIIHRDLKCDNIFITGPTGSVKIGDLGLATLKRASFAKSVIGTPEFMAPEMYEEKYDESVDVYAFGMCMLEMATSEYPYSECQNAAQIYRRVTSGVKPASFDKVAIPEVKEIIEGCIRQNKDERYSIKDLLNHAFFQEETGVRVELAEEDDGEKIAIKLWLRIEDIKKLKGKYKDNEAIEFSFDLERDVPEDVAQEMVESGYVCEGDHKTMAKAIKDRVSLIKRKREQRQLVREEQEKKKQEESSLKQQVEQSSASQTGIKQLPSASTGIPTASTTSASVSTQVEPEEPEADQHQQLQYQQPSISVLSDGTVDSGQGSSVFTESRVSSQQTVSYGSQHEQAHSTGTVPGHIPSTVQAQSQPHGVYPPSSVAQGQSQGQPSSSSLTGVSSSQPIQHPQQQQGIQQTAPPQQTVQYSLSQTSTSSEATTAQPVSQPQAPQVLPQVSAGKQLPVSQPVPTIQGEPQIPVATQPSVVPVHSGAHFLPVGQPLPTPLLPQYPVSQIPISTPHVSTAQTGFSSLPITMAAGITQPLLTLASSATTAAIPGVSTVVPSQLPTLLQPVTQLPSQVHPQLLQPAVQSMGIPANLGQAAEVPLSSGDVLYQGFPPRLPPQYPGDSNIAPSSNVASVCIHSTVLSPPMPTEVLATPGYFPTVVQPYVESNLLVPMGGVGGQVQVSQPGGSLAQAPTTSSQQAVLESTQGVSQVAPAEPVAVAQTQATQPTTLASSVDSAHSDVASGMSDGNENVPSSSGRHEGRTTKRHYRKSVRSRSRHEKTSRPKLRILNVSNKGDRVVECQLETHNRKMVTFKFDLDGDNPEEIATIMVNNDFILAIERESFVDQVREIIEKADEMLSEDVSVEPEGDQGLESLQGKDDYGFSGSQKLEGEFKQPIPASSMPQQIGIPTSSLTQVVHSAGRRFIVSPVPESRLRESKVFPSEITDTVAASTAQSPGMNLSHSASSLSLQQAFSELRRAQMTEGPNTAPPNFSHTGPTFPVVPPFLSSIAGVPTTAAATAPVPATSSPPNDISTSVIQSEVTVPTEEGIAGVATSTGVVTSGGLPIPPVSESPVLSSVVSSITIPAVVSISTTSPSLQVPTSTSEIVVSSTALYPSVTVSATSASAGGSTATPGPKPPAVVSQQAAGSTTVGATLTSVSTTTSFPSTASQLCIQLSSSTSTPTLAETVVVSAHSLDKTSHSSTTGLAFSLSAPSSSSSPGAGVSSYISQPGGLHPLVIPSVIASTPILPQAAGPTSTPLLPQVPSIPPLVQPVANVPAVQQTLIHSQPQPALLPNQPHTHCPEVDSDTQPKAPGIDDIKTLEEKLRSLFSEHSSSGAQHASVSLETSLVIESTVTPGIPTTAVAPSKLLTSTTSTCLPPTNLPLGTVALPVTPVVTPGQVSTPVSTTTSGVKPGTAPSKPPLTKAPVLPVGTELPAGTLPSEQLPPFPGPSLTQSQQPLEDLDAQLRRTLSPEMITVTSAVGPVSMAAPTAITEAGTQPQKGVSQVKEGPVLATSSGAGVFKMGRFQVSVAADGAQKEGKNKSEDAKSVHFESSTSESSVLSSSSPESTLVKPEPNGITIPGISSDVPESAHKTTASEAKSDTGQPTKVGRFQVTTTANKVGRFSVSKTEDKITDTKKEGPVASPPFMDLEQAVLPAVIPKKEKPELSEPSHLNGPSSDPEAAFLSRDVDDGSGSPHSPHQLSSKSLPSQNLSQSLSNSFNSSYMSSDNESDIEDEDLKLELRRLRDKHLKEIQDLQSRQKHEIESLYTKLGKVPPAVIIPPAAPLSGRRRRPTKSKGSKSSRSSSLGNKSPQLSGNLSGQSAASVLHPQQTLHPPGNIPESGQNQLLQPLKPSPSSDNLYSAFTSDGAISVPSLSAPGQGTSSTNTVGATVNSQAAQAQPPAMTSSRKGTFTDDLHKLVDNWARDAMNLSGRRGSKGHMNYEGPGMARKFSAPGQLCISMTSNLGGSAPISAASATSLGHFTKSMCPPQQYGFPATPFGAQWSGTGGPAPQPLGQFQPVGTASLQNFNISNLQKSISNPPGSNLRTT
Sequence of CDK4/cyclin D3 (P11802 whole entry): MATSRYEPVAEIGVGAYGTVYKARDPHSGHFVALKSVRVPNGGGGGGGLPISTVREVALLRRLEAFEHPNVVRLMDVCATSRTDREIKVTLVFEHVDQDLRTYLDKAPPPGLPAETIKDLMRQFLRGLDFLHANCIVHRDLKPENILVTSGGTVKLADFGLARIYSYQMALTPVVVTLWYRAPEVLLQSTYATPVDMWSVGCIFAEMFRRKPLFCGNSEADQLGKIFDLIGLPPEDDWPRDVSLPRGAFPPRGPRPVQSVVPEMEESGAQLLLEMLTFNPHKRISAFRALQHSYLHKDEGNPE
Sequence of CDK4/cyclin D3 (P30281 whole entry partner): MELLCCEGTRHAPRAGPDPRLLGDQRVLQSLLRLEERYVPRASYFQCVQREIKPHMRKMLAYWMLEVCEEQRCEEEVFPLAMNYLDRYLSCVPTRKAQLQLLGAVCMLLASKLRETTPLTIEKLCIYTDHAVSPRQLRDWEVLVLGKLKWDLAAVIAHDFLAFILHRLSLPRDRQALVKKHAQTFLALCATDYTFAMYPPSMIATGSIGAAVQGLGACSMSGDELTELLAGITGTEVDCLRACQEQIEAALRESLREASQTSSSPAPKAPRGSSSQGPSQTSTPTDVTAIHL
Sequence of MLK1/MAP3K9 (P80192 whole entry): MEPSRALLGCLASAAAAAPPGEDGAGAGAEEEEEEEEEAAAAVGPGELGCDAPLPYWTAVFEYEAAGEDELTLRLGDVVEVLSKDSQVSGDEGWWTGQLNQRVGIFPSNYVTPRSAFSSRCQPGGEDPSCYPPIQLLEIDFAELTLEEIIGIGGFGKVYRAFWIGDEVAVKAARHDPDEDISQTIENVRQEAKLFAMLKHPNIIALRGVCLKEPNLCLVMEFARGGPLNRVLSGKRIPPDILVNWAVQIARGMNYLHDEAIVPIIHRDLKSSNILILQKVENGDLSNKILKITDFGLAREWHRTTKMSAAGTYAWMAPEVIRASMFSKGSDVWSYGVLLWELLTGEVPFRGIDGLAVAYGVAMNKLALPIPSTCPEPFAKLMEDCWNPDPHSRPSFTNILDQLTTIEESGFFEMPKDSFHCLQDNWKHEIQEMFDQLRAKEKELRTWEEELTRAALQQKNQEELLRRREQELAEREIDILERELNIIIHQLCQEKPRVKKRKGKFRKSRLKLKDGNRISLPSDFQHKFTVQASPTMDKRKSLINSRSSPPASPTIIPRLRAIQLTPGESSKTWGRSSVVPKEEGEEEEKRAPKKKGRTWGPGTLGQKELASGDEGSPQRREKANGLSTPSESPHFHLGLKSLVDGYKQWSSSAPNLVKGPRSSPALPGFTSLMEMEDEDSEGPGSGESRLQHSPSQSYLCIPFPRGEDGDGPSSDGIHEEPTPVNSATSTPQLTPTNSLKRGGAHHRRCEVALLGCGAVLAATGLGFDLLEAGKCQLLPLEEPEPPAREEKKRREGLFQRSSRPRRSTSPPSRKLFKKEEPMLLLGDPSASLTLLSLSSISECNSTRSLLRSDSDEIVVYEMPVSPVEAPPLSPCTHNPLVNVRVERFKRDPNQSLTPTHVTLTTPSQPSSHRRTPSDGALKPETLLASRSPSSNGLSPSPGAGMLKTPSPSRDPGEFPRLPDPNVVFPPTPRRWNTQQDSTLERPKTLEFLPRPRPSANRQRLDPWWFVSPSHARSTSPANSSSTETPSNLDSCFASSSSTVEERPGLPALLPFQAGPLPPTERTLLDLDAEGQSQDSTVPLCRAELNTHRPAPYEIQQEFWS
Sequence of MLK4 (Q5TCX8 whole entry): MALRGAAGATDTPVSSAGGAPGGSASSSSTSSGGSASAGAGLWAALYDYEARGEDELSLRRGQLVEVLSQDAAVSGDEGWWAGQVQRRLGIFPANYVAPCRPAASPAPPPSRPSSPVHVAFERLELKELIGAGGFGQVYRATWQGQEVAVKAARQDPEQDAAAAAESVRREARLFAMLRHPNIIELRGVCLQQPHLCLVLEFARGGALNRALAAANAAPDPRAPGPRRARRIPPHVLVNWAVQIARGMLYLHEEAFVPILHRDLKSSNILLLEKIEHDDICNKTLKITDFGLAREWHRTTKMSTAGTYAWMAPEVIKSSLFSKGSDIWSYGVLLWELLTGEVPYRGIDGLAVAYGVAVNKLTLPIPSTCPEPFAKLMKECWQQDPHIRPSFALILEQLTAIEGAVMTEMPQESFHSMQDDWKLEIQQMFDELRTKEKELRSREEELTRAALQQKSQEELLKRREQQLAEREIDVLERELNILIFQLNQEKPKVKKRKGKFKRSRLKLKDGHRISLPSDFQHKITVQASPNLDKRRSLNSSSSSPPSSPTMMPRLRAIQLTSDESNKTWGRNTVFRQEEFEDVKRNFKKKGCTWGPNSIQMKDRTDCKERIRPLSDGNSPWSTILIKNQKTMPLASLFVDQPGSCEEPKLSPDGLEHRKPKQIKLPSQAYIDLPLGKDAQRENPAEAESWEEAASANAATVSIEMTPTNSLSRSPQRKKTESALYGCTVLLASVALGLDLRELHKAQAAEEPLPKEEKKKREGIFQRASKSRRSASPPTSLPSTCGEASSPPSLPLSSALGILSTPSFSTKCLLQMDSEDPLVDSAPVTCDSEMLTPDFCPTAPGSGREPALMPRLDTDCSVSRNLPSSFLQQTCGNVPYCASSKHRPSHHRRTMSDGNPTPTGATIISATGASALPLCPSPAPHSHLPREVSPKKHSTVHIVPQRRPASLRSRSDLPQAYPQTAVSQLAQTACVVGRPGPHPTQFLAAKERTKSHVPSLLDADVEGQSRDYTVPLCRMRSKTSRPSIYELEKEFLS

Consider `COc1cc(-c2cncc(-c3ccc(N4C[C@@H](C)N(C)[C@@H](C)C4)cc3)c2C)cc(F)c1C(N)=O` [Compound 26c, 2-Fluoro-6-methoxy-4-(4-methyl-5-(4-((3R,5S)-3,4,5-trimethylpiperazin-1-yl)phenyl)pyridin-3-yl)benzamide], for which, at CDK4/cyclin D3, the “% enzyme activity” value was 95.54%. For the same compound, the remaining activity at 1 µM on ERN1/IRE1 was found to be 91%; at KSR2 it was 98.5%; at MLK1/MAP3K9, 99.8%; at MLK4, 96.2%; at SYK, 102%; at TBK1, 87.2%. The remaining activity at 1 µM was 105% at WEE1 and 104% on WNK1.
Turning to `COc1cc(-c2cncc(-c3ccc(N4CCN(C)CC4)cc3)c2C)cc(F)c1C(N)=O` [Compound 26a, 2-Fluoro-6-methoxy-4-(4-methyl-5-(4-(4-methylpiperazin-1-yl)phenyl)pyridin-3-yl)benzamide], the “% enzyme activity” value on CDK4/cyclin D3 is 96.96%. Also, the remaining activity at 1 µM is 92.8% on ERN1/IRE1; 96.9% on KSR2; 112% on MLK1/MAP3K9; 95.3% at MLK4; 101% at SYK; 93.6% on TBK1. Also, the remaining activity at 1 µM at WEE1 is 105%; at WNK1, 108%.
